Among the data in a melting point compilation (Tetko et al.; mined from patent text by program, amines drawn as free bases though some values may be those of a salt) are melting point values, retold here.

By melting point is commonly meant the temperature, or range, at which the solid turns liquid.

Where only a bound is given, the exact number is not on record here.

The compound `CN1C(=O)[C@H](NC(=O)COc2ccccc2)N=C(c2ccccc2)c2ccccc21` gave a melting point of 126 to 128 °C.

Take `CCOC(=O)C1=C(C)NC(=S)N(C(=O)OCC)C1c1ccccc1C(F)(F)F` (stereo not given): the melting point fell in the range of 106 to 108 °C.

For `O=C(CCCCCBr)Nc1cc(Cl)c(O)c(Cl)c1`, the melting point was 113 to 114 °C.

The compound `CC1(C)CC(=O)c2c(O)cc(C=Cc3ccccc3)cc2O1` returned a melting point of 116 °C.

In turn, `O=C(O)Cc1ccc(OCCNC(=O)C2Cc3ccccc3N2S(=O)(=O)c2ccc(-c3cccc(C(F)(F)F)c3)cc2)cc1` (stereo not given) displayed a melting point of 92 °C.

In turn, `CC(=O)OC1=C(OC(C)=O)C(=O)c2cc(Cl)ccc2C1=O` gave a melting point of 110 to 111 °C.

With `C#CCS(=O)c1c(O)cc(C)oc1=O` (stereo not given), the melting point came to 134 °C.

Turning to `O=C1c2cc3nnn(CCC4=CCCCC4)c(=O)c3cc2OC2CCCN12` (stereo not given), the melting point amounted to 124 °C.

`CC(=O)OCC(=O)Nc1ccc(-c2nc(C(=O)Nc3nccs3)c(-c3ccc(C)cc3)[nH]2)cc1` showed a melting point above 250 °C.

Compound `Fc1cc(F)c2c(c1)CC(n1c(-c3nnn[nH]3)c[nH]c1=S)CC2` (stereo not given) yielded a melting point of 214 to 215 °C.

In turn, `OC1(c2cc3ccccc3s2)CCN(CCC2COc3ccccc3O2)CC1` (stereo not given) registered a melting point of 175 to 178 °C.

`COC(=O)C1CC(C#N)(c2ccc(OC)c3c2OC(C)(C)O3)CCC1=O` (stereo not given) returned a melting point of 146 to 147 °C.

`O=C1CC(=O)CC(CC2CCOCC2)C1` gave a melting point of 129 to 130 °C.

For the compound `COc1cc2c(Nc3ccc(Sc4nccn4C)c(Cl)c3)c(C#N)cnc2cc1/C=C/CCN(C)C`, the melting point fell in the range of 215 to 225 °C.

Turning to `NS(=O)(=O)c1ccc(-n2nc(C=NOCc3ccccc3)cc2-c2ccc(Cl)cc2)cc1`, the melting point lay within 158 to 159 °C.

`COc1ccc(NN=C(Sc2cccc(OC)c2)C(C)=O)cc1`: the melting point was in the range of 97 to 99 °C.

The compound `O=C(CCCCCBr)NC(C(=O)c1ccc(Cl)cc1)c1ccc(Cl)cc1` (stereo not given) returned a melting point of 105 °C.

Take `Cn1c(C(F)(F)F)cc(=O)n(-c2ccc3snc(C4SCCS4)c3c2)c1=O`: the melting point lay in the range of 227 to 232 °C.

For the compound `Cc1ccc(N2CCN(c3cccc(Cl)c3)C2C(Cl)(Cl)Cl)cc1` (stereo not given), the melting point lay within 34 to 36 °C.

For `CC(C)(C)C(=O)N(O)Cc1ccccc1Cl`, the melting point lay within 100 to 102 °C.

`COc1cc(CN(O)C(N)=O)ccc1OCc1nc(-c2ccccc2)oc1C` showed a melting point of 138 to 139 °C.

In turn, `Cc1nnc(NCCNC2CN3CCC2CC3)c2cc3ccccn3c12` (stereo not given) had a melting point of 205 to 208 °C.

Compound `CC(C)n1cc(-c2ncc(N)nc2-c2ccc(F)cc2)ccc1=O` returned a melting point of 258 °C.

With `C=Cc1cc(NC(=O)N2CCN(c3cc(C)cc(C)c3)CC2)c(OC)nc1C`, the melting point fell in the range of 131 to 132 °C.

Compound `Cc1ccc(Oc2nc3ccc(N=C=S)cc3s2)cc1` showed a melting point of 121 to 123 °C.

Take `Cc1cccc(-c2n[nH]cc2-c2ccc(F)c(-c3ccc(S(=O)(=O)CCO)cc3)c2)n1`: the melting point was in the range of 88 to 90 °C.

As for `Cc1nc2c(O)c(CCC(O)c3ccccc3)c(C(=O)N(C)C)cc2n1C` (stereo not given), the melting point fell in the range of 216 to 218 °C.

`COc1ccc2c(c1)C(CCNC(=O)C(C)C)CC2` (stereo not given): the melting point lay in the range of 104 to 105 °C.

Regarding `CCOC(=O)C1CN2c3c(c(F)c(F)c(F)c3C1=O)CCN2C` (stereo not given), the melting point lay in the range of 236 to 240 °C.

The compound `CN(CCc1ccc(N)cc1)C1Cc2ccc(N)cc2C1` (stereo not given) displayed a melting point of 112 to 114 °C.

In turn, `CC(=O)NC1(C)CCN(CCCOc2ccc(F)cc2)CC1` had a melting point of 103 °C.

Turning to `COc1ccc2c(c1)C(N)=NCC2`, the melting point was 114 to 118 °C.

Take `COc1cc2cnnc(N3CCCC(CO)C3)c2cc1OC` (stereo not given): the melting point fell in the range of 162 to 165 °C.

The compound `CC(C)(CN)c1ccc2nc(-c3ccncc3)[nH]c2c1` came in with a melting point of 199 to 202 °C.

The compound `CCCCNC(=O)c1ccc(Cl)c(-n2nc(CCCC)n(Cc3ccc(Br)cc3F)c2=O)c1` had a melting point of 114 to 116 °C.

As to `N#Cc1c(N)cccc1N1CCCC1`, the melting point lay in the range of 112 to 114 °C.

As for `COc1cc2ncnc(N3CCN(C(=O)NCc4ccco4)CC3)c2cc1OC`, the melting point was in the range of 168 to 170 °C.

On to `C=Cc1nn(Cc2ccc(C(=O)OC)cc2OC)c2cc(C(=O)NCC3CCCC3)ccc12`, for which the melting point lay in the range of 138 to 140 °C.

Turning to `CCCC(=O)c1cc2c(=O)cc(C(=O)OC)[nH]c2c(C)c1C`, the melting point is 157 to 159 °C.

For the compound `CCOC(=O)C=Cc1cccc(Cl)c1Cl`, the melting point lay within 69 to 70 °C.

For `Oc1cnccc1CCCOc1cccnc1Oc1cccc(Br)c1`, the melting point was in the range of 116 to 118 °C.

Regarding `O=C(CCCC1CCN(Cc2ccccc2)CC1)c1ccc(F)cc1`, the melting point fell in the range of 53 to 55 °C.

For the compound `Sc1nc2cc(Cl)c(Cl)cc2s1`, the melting point lay in the range of 234 to 236 °C.

Consider `CCC(=O)c1ccc(O)c(C(C)C)c1`, for which the melting point stood at 105 °C.

Consider `O=C1NC(=O)C(Cc2ccc(NC(=O)c3cc(=O)c4cc(Br)ccc4o3)cc2)S1` (stereo not given), for which the melting point fell in the range of 281 to 285 °C.

`CC(=O)OC1CC2CCC3C(CCC4(C)C(O)C(N5CCCC5)CC34)C2(C)CC1N1CCOCC1` (stereo not given) gave a melting point of 112 to 118 °C.

Compound `CC(=O)OC1c2ccccc2-c2[nH]c(=O)c(=O)[nH]c21` (stereo not given) gave a melting point above 300 °C.

`O=C1c2ccccc2C(O)(c2ccccc2)N1CCc1ccccc1F` (stereo not given): the melting point came to 208 °C.

As to `CN(C)C=Nc1ncc(C#Cc2ccc(Cl)cc2)c(Cl)n1`, the melting point was in the range of 195 to 197 °C.

In turn, `c1coc(CNc2nccc3ccccc23)c1` yielded a melting point of 76 to 77 °C.

For `CCCCOc1ncc(C(C)=O)cc1-c1nn2c(CC)nc(CCC)c2c(=O)[nH]1`, the melting point lay in the range of 155 to 156 °C.

Compound `O=C1c2ccccc2C(=O)N1CCCCN1CCC(c2c[nH]c3ccccc23)CC1` gave a melting point of 106 to 108 °C.

The compound `C[C@H]1C=CC(S(=O)(=O)c2ccccc2)=C[C@H](C)[C@H]1O` showed a melting point of 100 to 102 °C.

In turn, `Cc1ccc(-c2c(N)ncnc2OCCO)cc1` registered a melting point of 91.5 to 93.5 °C.

`CC(C)C(=O)N(Cc1ccccc1)c1nnn(Cc2ccccc2)n1` yielded a melting point of 68 °C.

`COc1cnc(-c2cccn3nc(Nc4ccc(C5CCN(C(=O)OC(C)(C)C)CC5)cc4)nc23)cn1` yielded a melting point of 193 to 195 °C.

In turn, `COP(=S)(OC)Oc1nsc(SC)n1` returned a melting point of 45 °C.

Turning to `COc1c(C)ccc(C(C)C)c1CO`, the melting point lay in the range of 100 to 101 °C.

In the case of `C=CCN(CC=C)C(=O)Nc1cc(C)c(S(=O)(=O)C[N+](=O)[O-])c(C)c1`, the melting point lay in the range of 127 to 129 °C.

In the case of `CC(C)(C)c1nn(-c2c(Cl)cc(C(F)(F)F)cc2Cl)c(N)c1Cl`, the melting point came to 137 °C.

Regarding `Cc1ccc(NC(=O)C(C)C)s1`, the melting point lay within 95 to 97 °C.

`CCCCN(CCCC)c1ccc(C=CC=Cc2ccc(C=CC3=C(C#N)C(=C(C#N)C#N)OC3(c3ccccc3)C(F)(F)F)s2)c(OC)c1` (stereo not given) displayed a melting point of 125 to 140 °C.

On to `CC(=O)Nc1cccc2c1NC(=O)C2c1ccccc1` (stereo not given), for which the melting point is 258 to 262 °C.

For the compound `O=S(=O)(NC(CO)(CO)CO)c1cncc(C#Cc2cnn3c(C(F)(F)F)cc(-c4ccc(C(F)(F)F)cc4)nc23)c1`, the melting point is 230 to 232 °C.

The compound `CN(C)c1c(-c2ccc(-c3ccccc3)cc2)nc2ccc(F)cc2c1C(=O)O` gave a melting point of 235 to 239 °C.
